Test results published in US20220387405A1, “METHODS OF TREATMENT WITH N-((R)-1-(3-CHLOROPYRIDIN-2-YL)-2,2,2-TRIFLUOROETHYL)-2-((S)-2,6-DIOXOPIPERIDIN-3-YL)-1-OXOISOINDOLINE-5-CARBOXAMIDE” (CELGENE CORPORATION, priority 2021, published 2022).
Where two headings read alike, the source gives them in different places.

How the values were obtained:
CYP2B6 [1] = assay: CYP induction in human hepatocyte culture, CYP2B6 mRNA; type: in vitro ADME; settings: up to 50 μM for three consecutive days
[2] = Dose toxicity and toxicokinetics study in rats; type: in vivo; settings: for AUC / Cmax: both sexes; for AUC / Cmax / NOAEL: rat, in vivo, po; for NOAEL: female, oral gavage, read-out: NOAEL (females)
Experimental: Additionally, control animals were dosed with a vehicle using a combination of both dosing regimens. Recovery of test article-related effects was evaluated during a 4-week recovery period.
Animals in Regimen 1 were dosed for 7 consecutive days in each 4-week cycle for 2 cycles (0.3 or 3 mg/kg on Days 1-7 and 29-35), whereas animals in Regimen 2 were dosed twice weekly for 4 weeks (0.5 or 5 mg/kg on Days 1, 4, 8, 11, 15, 18, 22 and 25). End of dosing necropsy was performed on the day after the last dose administration. A 4-week recovery period was included to assess reversibility of findings.

CYP1A2 = assay: CYP induction in human hepatocyte culture, CYP1A2 mRNA; type: in vitro ADME; settings: up to 50 μM for three consecutive days
[3] = test system: AML cell lines with TP53 loss or mutation; assay: Activity against AML cell lines with TP53 loss or mutation; type: cell-based
Text: The remaining 5 cell lines were either medium-sensitive or completely resistant to Compound 1; the unresponsiveness to Compound 1 treatment was associated with inadequate accumulation of p53 protein and/or its transcriptional targets BAX and PUMA.

[4] = test system: human peripheral blood (PB) lymphocytes; assay: In vitro mammalian cell micronucleus test
Experimental: Compound 1 was tested in the in vitro mammalian cell micronucleus test in human peripheral blood (PB) lymphocytes in the presence and absence of a metabolic activation system, Aroclor-induced rat liver fraction (S9), for 4 hours, and in the absence of S9 for 24 hours. The highest concentration tested was 481 μg/mL. Dimethyl sulfoxide (DMSO) was used as the solvent. […] In addition, 2 lower concentrations with appropriate concentration and cytotoxicity spacing were chosen for micronucleus scoring in each regime.

CYP2B6 [5] = biological target: T1, CYP2B6 (Homo sapiens, UniProt P20813); assay: CYP inhibition in human liver microsomes, CYP2B6; type: in vitro ADME
T1 construct: In human liver microsomes; from tissue; host or cells: human liver microsomes

CYP2D6 = biological target: T2, CYP2D6 (Homo sapiens, UniProt P10635); assay: CYP inhibition in human liver microsomes, CYP2D6; type: in vitro ADME
T2 construct: In human liver microsomes; from tissue; host or cells: human liver microsomes

CYP2E1 = biological target: T3, CYP2E1 (Homo sapiens, UniProt P05181); assay: CYP inhibition in human liver microsomes, CYP2E1; type: in vitro ADME
T3 construct: In human liver microsomes; from tissue; host or cells: human liver microsomes

[6] = Cardiovascular assessment (ECG, heart rate) in conscious cynomolgus monkeys; type: in vivo; settings: oral gavage, 0.03-0.3 mg/kg, Regimens 1 and 2, 1 hour postdose
Experimental: Cardiovascular assessments (electrocardiograms [ECGs] and heart rates) were conducted in conscious cynomolgus monkeys as part of the Good Laboratory Practice (GLP)-compliant repeat dose toxicity study. In this study, Compound 1 was administered by oral gavage to Cynomolgus monkeys (5/sex/group) in Groups 1-5 at doses of 0 (0.5% (w/v) Methylcellulose, 0.25% (v/v) Tween 80 in 50 mM citrate buffer pH 3), 0.03, 0.1, 0.1 and 0.3 mg/kg, respectively, intermittently using 2 different dosing regimens. Groups 2 and 3 animals were dosed for 7 consecutive days in each 4-week cycle for 2 cycles (Regimen 1: on Days 1-7 and 29-35), whereas Groups 4 and 5 animals were dosed twice weekly for 4 weeks (Regimen 2: on Days 1, 4, 8, 11, 15, 18, 22 and 25). A combination of both dosing regimens (Days 1-7, 8, 11, 15, 18, 22, 25, and 29-35) was used for administration of the vehicle to the control animals. […] Qualitative (visual inspection) and quantitative assessments including heart rates and PR, QRS, RR, QT, and QTc intervals were performed. QTc was calculated using Bazett's formula.

CYP2C19 = biological target: T4, CYP2C19 (Homo sapiens, UniProt P33261); assay: CYP inhibition in human liver microsomes, CYP2C19; type: in vitro ADME
T4 construct: In human liver microsomes; from tissue; host or cells: human liver microsomes

[7] = biological target: T5, cloned hERG potassium channel expressed in the HEK-293 cell line (Homo sapiens, UniProt Q12809); assay: hERG IonWorks Barracuda patch clamp electrophysiology assay; type: cell-based
T5 construct: expressed in transfected cells; host or cells: HEK-293
Experimental: (§1) The effect of Compound 1 on the cloned hERG potassium channel expressed in the HEK-293 cell line was also investigated. […] The percent inhibition at 30 μM was 19%.

hERG potassium channel = biological target: T6, hERG potassium channel (Homo sapiens, UniProt Q12809); assay: as above; type: cell-based; settings: human, HEK-293 cells expressing cloned hERG potassium channel; at 30 μM; read-out: percent inhibition
T6 construct: expressed in transfected cells; host or cells: HEK-293
Experimental: as §1

MV4-11 AML cell line = assay: Compound washout experiment in MV4-11 (CK1α, p53 and downstream events); type: cell-based; settings: 0.3 μM for 12 hours followed by washout
[8] = Partitioning into blood cells; type: in vitro ADME
Text: There was no marked difference in free fraction among human, rat and monkey. Over the concentration ranges tested (25- to 50-fold range) in each species, there was <2-fold change in free fraction.

[9] = 0.3 mg/kg, Regimen 1, sexes combined
[10] = 0.5 mg/kg, Regimen 2, sexes combined

T3 sequence (P05181 whole entry): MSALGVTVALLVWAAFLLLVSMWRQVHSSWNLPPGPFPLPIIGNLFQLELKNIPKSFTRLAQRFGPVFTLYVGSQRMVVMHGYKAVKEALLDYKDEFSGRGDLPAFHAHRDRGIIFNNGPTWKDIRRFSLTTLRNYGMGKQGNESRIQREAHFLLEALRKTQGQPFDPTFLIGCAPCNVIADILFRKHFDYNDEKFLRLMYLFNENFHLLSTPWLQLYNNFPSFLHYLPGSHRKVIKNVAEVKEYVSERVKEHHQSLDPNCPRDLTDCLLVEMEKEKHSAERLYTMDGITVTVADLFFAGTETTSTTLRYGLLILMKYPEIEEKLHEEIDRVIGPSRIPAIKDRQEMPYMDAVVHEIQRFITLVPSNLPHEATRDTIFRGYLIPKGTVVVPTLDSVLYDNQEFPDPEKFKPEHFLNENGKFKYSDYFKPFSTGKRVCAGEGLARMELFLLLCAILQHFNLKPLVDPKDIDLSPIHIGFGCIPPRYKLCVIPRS
T2 sequence (P10635 whole entry): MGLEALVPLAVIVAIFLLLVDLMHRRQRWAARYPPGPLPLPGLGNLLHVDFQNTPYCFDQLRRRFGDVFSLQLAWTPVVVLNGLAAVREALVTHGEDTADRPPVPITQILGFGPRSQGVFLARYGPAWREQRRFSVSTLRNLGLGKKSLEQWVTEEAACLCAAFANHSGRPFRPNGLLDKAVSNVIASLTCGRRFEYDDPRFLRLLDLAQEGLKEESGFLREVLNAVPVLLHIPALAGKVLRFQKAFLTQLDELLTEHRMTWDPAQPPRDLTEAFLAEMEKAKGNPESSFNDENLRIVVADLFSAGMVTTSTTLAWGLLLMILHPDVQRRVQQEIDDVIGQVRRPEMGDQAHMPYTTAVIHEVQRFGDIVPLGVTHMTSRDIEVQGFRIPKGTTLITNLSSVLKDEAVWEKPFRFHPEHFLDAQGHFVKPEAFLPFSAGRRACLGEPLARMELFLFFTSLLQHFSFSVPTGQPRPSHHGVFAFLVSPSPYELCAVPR
T5 sequence (Q12809 whole entry): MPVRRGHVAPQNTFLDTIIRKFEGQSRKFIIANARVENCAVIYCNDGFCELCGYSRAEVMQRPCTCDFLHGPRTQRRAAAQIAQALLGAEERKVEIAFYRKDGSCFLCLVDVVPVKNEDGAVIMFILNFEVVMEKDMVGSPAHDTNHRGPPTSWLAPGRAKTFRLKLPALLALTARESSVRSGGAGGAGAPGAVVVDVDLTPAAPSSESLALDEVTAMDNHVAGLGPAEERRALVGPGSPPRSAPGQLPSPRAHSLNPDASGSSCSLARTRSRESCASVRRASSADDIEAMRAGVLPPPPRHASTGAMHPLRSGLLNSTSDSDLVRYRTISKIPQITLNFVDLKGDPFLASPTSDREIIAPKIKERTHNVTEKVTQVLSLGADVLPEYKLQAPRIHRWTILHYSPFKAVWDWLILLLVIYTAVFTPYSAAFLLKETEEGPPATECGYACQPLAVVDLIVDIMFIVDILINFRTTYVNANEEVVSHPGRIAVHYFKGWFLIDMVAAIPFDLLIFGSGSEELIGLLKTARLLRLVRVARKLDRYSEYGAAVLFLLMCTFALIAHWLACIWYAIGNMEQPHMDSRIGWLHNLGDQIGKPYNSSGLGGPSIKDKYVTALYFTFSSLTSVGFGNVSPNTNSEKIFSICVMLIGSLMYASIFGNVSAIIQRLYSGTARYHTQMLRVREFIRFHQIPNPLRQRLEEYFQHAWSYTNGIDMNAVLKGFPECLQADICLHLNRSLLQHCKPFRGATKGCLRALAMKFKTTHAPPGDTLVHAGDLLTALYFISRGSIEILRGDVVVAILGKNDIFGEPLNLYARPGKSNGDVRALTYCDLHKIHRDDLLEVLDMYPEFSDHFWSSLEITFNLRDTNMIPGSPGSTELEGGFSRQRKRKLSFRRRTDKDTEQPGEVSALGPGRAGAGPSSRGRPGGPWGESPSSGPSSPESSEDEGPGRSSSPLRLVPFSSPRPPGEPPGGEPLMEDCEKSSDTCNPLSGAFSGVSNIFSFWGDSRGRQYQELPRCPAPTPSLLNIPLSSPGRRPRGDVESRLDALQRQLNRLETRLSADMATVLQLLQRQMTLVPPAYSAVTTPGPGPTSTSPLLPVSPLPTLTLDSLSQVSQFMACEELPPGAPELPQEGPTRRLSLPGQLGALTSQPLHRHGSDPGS
T4 sequence (P33261 whole entry): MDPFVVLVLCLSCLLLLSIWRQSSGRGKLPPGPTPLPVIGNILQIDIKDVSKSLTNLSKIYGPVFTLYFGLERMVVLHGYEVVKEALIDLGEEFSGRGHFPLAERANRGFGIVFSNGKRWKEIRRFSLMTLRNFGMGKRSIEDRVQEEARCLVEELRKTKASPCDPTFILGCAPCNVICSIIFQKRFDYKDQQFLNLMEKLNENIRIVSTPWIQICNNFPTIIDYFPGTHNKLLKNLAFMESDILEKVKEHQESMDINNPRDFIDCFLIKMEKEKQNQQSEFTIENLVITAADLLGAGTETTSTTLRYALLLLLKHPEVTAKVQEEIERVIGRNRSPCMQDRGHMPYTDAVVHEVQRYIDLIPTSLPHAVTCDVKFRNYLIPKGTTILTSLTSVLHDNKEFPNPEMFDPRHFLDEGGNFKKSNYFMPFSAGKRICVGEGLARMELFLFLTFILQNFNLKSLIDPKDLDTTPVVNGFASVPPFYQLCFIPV
T1 sequence (P20813 whole entry): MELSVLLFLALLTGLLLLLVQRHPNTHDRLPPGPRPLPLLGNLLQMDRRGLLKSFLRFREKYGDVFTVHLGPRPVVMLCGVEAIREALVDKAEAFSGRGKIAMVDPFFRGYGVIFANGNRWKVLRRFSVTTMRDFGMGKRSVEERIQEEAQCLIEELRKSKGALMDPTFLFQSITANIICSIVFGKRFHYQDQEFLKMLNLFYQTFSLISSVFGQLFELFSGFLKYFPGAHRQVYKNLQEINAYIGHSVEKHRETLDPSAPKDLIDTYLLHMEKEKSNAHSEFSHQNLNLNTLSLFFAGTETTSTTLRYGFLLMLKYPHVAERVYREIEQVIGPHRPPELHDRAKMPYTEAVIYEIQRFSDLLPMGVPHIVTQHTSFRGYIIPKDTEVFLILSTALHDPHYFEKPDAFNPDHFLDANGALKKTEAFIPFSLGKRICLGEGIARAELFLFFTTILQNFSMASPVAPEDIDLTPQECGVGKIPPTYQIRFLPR
T6 sequence (Q12809 whole entry): as the sequence (Q12809 whole entry) above

With O=C1CC[C@H](N2Cc3cc(C(=O)N[C@H](c4ncccc4Cl)C(F)(F)F)ccc3C2=O)C(=O)N1 [Compound 1, N-((R)-1-(3-chloropyridin-2-yl)-2,2,2-trifluoroethyl)-2-((S)-2,6-dioxopiperidin-3-yl)-1-oxoisoindoline-5-carboxamide] the “mRNA expression of CYP2B6” value (CYP2B6 [1]) was “no dose-dependent increases”, the “severely toxic dose in 10% of the animals (STD 10)” value ([2]; Regimen 1) was 0.3 mg/kg and the “severely toxic dose in 10% of the animals (STD 10)” value ([2]; Regimen 2) was 0.5 mg/kg. For the same molecule, the “NOAEL (males)” value ([2]; both regimens) was “not identified”, the AUC [2, 9] was 761 ng·h/mL and the Cmax [2, 9] was 225 ng/mL. For the same molecule, the AUC [2, 10] was 1200 ng·h/mL, the Cmax [2, 10] was 263 ng/mL and the NOAEL ([2]; Regimen 1 (Days 1-7 and 29-35)) was 0.3 mg/kg. For the same molecule, the NOAEL ([2]; Regimen 2 (twice weekly for 4 weeks)) was 0.5 mg/kg, the “mRNA expression of CYP1A2” value (CYP1A2) was “no dose-dependent increases” and the sensitivity to treatment [3] was “insensitive”. For the same molecule, the “proportion of micronucleated binucleate cells (MBC)” value ([4]; 4 hours with and without S9, 24 hours without S9, compared with negative controls) was “did not cause any statistically significant increases”, the “cytotoxicity based on CBPI” value ([4]; human, 24 h, 120 μg/mL) was “approximately 55%” and the time-dependent inhibition (CYP2B6 [5]; CYP2B6, 30-minute preincubation with NADPH) was “not a time-dependent inhibition”. The inhibitory effect (CYP2B6 [5]; human liver microsomes, CYP2B6) was at most 25%, the time-dependent inhibition (CYP2D6; CYP2D6, 30-minute preincubation with NADPH) was “not a time-dependent inhibition” and the inhibitory effect (CYP2D6; human liver microsomes, CYP2D6) was at most 25%. For the same molecule, the time-dependent inhibition (CYP2E1; CYP2E1, 30-minute preincubation with NADPH) was “not a time-dependent inhibition”, the inhibitory effect (CYP2E1; human liver microsomes, CYP2E1) was at most 25% and the “effects on heart rate, PR, QRS, QT, and QTc intervals” value [6] was “no Compound 1 related effects”. For the same molecule, the time-dependent inhibition (CYP2C19; CYP2C19, 30-minute preincubation with NADPH) was “not a time-dependent inhibition”, the inhibitory effect (CYP2C19; human liver microsomes, CYP2C19) was at most 25% and the “precipitation in the assay” value ([7]; concentrations up to 30 μM) was “did not precipitate”. The IC50 ([7]; hERG, IonWorks Barracuda patch clamp) was over 30 µM, the inhibition at 30 µM (hERG potassium channel) was 19% and the “persistence of p53 downstream events (p21, phosphor-Ser139-Histone H2A.X, caspase 3 cleavage) after washout” value (MV4-11 AML cell line) was “at least 10 hours”. The “partitioning into blood cells” value [8] was “no or limited partitioning”.
